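Five compound concentrations were applied to cells in 96-well plates for 48 hours; endpoints were derived by simple linear interpolation of the resulting dose-response curve. The concentration for full growth arrest is given as TGI.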
Legend:
Assay in all cases: inhibition of tumour cell growth, NCI panel, 48 h
DU-145 prostate = tested on: DU-145 prostate
SF-295 CNS = tested on: SF-295 CNS
UACC-62 melanoma = tested on: UACC-62 melanoma
PC-3 prostate = tested on: PC-3 prostate
A549 NSCLC = tested on: A549 NSCLC
NCI/ADR-RES ovarian = tested on: NCI/ADR-RES ovarian
EKVX NSCLC = tested on: EKVX NSCLC
HCT-15 colon = tested on: HCT-15 colon
SK-MEL-2 melanoma = tested on: SK-MEL-2 melanoma
KM12 colon = tested on: KM12 colon
HT29 colon = tested on: HT29 colon
MDA-N = tested on: MDA-N
HCC-2998 colon = tested on: HCC-2998 colon
UO-31 renal = tested on: UO-31 renal
SF-539 CNS = tested on: SF-539 CNS
SK-MEL-28 melanoma = tested on: SK-MEL-28 melanoma
SK-OV-3 ovarian = tested on: SK-OV-3 ovarian
CCRF-CEM leukemia = tested on: CCRF-CEM leukemia
HOP-92 NSCLC = tested on: HOP-92 NSCLC
RXF 393 renal = tested on: RXF 393 renal
NCI-H460 lung = tested on: NCI-H460 lung
A498 renal = tested on: A498 renal
TK-10 renal = tested on: TK-10 renal
OVCAR-3 ovarian = tested on: OVCAR-3 ovarian
HS 578T breast = tested on: HS 578T breast
MALME-3M melanoma = tested on: MALME-3M melanoma
MCF7 breast = tested on: MCF7 breast
SNB-75 CNS = tested on: SNB-75 CNS
NCI-H522 lung = tested on: NCI-H522 lung
RPMI-8226 leukemia = tested on: RPMI-8226 leukemia
UACC-257 melanoma = tested on: UACC-257 melanoma
U251 CNS = tested on: U251 CNS
M14 melanoma = tested on: M14 melanoma
CAKI-1 renal = tested on: CAKI-1 renal
COLO 205 colon = tested on: COLO 205 colon
T-47D breast = tested on: T-47D breast
HCT-116 colon = tested on: HCT-116 colon
OVCAR-4 ovarian = tested on: OVCAR-4 ovarian
SK-MEL-5 melanoma = tested on: SK-MEL-5 melanoma
SR leukemia = tested on: SR leukemia
NCI-H226 lung = tested on: NCI-H226 lung
K-562 leukemia = tested on: K-562 leukemia
OVCAR-8 ovarian = tested on: OVCAR-8 ovarian
ACHN renal = tested on: ACHN renal
OVCAR-5 ovarian = tested on: OVCAR-5 ovarian
LOX IMVI melanoma = tested on: LOX IMVI melanoma
786-0 renal = tested on: 786-0 renal
IGROV1 ovarian = tested on: IGROV1 ovarian
MDA-MB-435 = tested on: MDA-MB-435
MOLT-4 leukemia = tested on: MOLT-4 leukemia
SW-620 colon = tested on: SW-620 colon
BT-549 breast = tested on: BT-549 breast
SNB-19 CNS = tested on: SNB-19 CNS
NCI-H23 lung = tested on: NCI-H23 lung
MDA-MB-231 breast = tested on: MDA-MB-231 breast
HL-60(TB) leukemia = tested on: HL-60(TB) leukemia
SF-268 CNS = tested on: SF-268 CNS
SN12C renal = tested on: SN12C renal
HOP-62 NSCLC = tested on: HOP-62 NSCLC

For `O=C(CC(O)(C(F)(F)F)C(F)(F)F)C(c1ccccc1)C(O)(C(F)(F)F)C(F)(F)F` (stereo not drawn), the TGI (DU-145 prostate) was greater than 100 µM, the TGI (SF-295 CNS) was greater than 100 µM and the TGI (UACC-62 melanoma) was greater than 100 µM. It also gave a TGI (PC-3 prostate) greater than 100 µM, a TGI (A549 NSCLC) greater than 100 µM and a TGI (NCI/ADR-RES ovarian) greater than 100 µM. For the same compound, the TGI (EKVX NSCLC) was greater than 100 µM, the TGI (HCT-15 colon) was greater than 100 µM and the TGI (SK-MEL-2 melanoma) was greater than 100 µM. It also gave a TGI (KM12 colon) greater than 100 µM, a TGI (HT29 colon) greater than 100 µM and a TGI (MDA-N) greater than 100 µM. It also gave a TGI (HCC-2998 colon) greater than 100 µM, a TGI (UO-31 renal) greater than 100 µM and a TGI (SF-539 CNS) of 94.1 µM. It also gave a TGI (SK-MEL-28 melanoma) greater than 100 µM, a TGI (SK-OV-3 ovarian) of 88.8 µM and a TGI (CCRF-CEM leukemia) greater than 100 µM. The TGI (HOP-92 NSCLC) was 13 µM, the TGI (RXF 393 renal) was 25.2 µM and the TGI (NCI-H460 lung) was greater than 100 µM. The TGI (A498 renal) was greater than 100 µM, the TGI (TK-10 renal) was greater than 100 µM and the TGI (OVCAR-3 ovarian) was 83.4 µM. The TGI (HS 578T breast) was 41.8 µM, the TGI (MALME-3M melanoma) was greater than 100 µM and the TGI (MCF7 breast) was greater than 100 µM. The TGI (SNB-75 CNS) was 27.2 µM, the TGI (NCI-H522 lung) was greater than 100 µM and the TGI (RPMI-8226 leukemia) was greater than 100 µM. It also gave a TGI (UACC-257 melanoma) greater than 100 µM, a TGI (U251 CNS) greater than 100 µM and a TGI (M14 melanoma) greater than 100 µM. The TGI (CAKI-1 renal) was greater than 100 µM, the TGI (COLO 205 colon) was greater than 100 µM and the TGI (T-47D breast) was greater than 100 µM. The TGI (HCT-116 colon) was greater than 100 µM, the TGI (OVCAR-4 ovarian) was greater than 100 µM and the TGI (SK-MEL-5 melanoma) was greater than 100 µM. It also gave a TGI (SR leukemia) greater than 100 µM, a TGI (NCI-H226 lung) greater than 100 µM and a TGI (K-562 leukemia) greater than 100 µM. It also gave a TGI (OVCAR-8 ovarian) greater than 100 µM, a TGI (ACHN renal) of 79.5 µM and a TGI (OVCAR-5 ovarian) greater than 100 µM. The TGI (LOX IMVI melanoma) was greater than 100 µM, the TGI (786-0 renal) was greater than 100 µM and the TGI (IGROV1 ovarian) was greater than 100 µM. For the same compound, the TGI (MDA-MB-435) was greater than 100 µM, the TGI (MOLT-4 leukemia) was greater than 100 µM and the TGI (SW-620 colon) was greater than 100 µM. For the same compound, the TGI (BT-549 breast) was greater than 100 µM, the TGI (SNB-19 CNS) was greater than 100 µM and the TGI (NCI-H23 lung) was greater than 100 µM. For the same compound, the TGI (MDA-MB-231 breast) was greater than 100 µM.

`COc1cccc(Nc2nc(C)c([N+](=O)[O-])c(Nc3cccc(OC)c3)n2)c1` showed a TGI (DU-145 prostate) of 56.1 µM, a TGI (SF-295 CNS) of 47.9 µM and a TGI (UACC-62 melanoma) of 38.8 µM. It also gave a TGI (PC-3 prostate) greater than 100 µM, a TGI (A549 NSCLC) greater than 100 µM and a TGI (NCI/ADR-RES ovarian) of 14.4 µM. For the same compound, the TGI (HL-60(TB) leukemia) was greater than 100 µM, the TGI (EKVX NSCLC) was 78.4 µM and the TGI (HCT-15 colon) was greater than 100 µM. The TGI (SK-MEL-2 melanoma) was 96.5 µM, the TGI (SF-268 CNS) was greater than 100 µM and the TGI (HT29 colon) was greater than 100 µM. It also gave a TGI (MDA-N) greater than 100 µM, a TGI (SN12C renal) greater than 100 µM and a TGI (UO-31 renal) greater than 100 µM. The TGI (SF-539 CNS) was greater than 100 µM, the TGI (SK-MEL-28 melanoma) was greater than 100 µM and the TGI (SK-OV-3 ovarian) was greater than 100 µM. The TGI (HOP-92 NSCLC) was greater than 100 µM, the TGI (RXF 393 renal) was 35.2 µM and the TGI (NCI-H460 lung) was 19.8 µM. For the same compound, the TGI (A498 renal) was 50.4 µM, the TGI (TK-10 renal) was 95.7 µM and the TGI (OVCAR-3 ovarian) was 57.2 µM. For the same compound, the TGI (HS 578T breast) was greater than 100 µM, the TGI (MALME-3M melanoma) was greater than 100 µM and the TGI (MCF7 breast) was greater than 100 µM. It also gave a TGI (SNB-75 CNS) of 4.73 µM, a TGI (NCI-H522 lung) greater than 100 µM and a TGI (RPMI-8226 leukemia) of 45.9 µM. The TGI (UACC-257 melanoma) was 46.7 µM, the TGI (U251 CNS) was greater than 100 µM and the TGI (M14 melanoma) was greater than 100 µM. It also gave a TGI (COLO 205 colon) of 44.9 µM, a TGI (T-47D breast) of 6.9 µM and a TGI (HCT-116 colon) greater than 100 µM. The TGI (SK-MEL-5 melanoma) was 77.2 µM, the TGI (SR leukemia) was greater than 100 µM and the TGI (NCI-H226 lung) was greater than 100 µM. For the same compound, the TGI (K-562 leukemia) was greater than 100 µM, the TGI (OVCAR-8 ovarian) was greater than 100 µM and the TGI (ACHN renal) was greater than 100 µM. For the same compound, the TGI (OVCAR-5 ovarian) was greater than 100 µM, the TGI (LOX IMVI melanoma) was greater than 100 µM and the TGI (786-0 renal) was greater than 100 µM. For the same compound, the TGI (IGROV1 ovarian) was greater than 100 µM, the TGI (MOLT-4 leukemia) was 30.2 µM and the TGI (SW-620 colon) was greater than 100 µM. The TGI (BT-549 breast) was 8.14 µM, the TGI (SNB-19 CNS) was greater than 100 µM and the TGI (HOP-62 NSCLC) was 46.2 µM. It also gave a TGI (NCI-H23 lung) greater than 100 µM and a TGI (MDA-MB-231 breast) greater than 100 µM.
